Laboratory results published in US20120220662A1, “PHYTOCEUTICAL COMPOSITIONS FOR PETS” (BIOKAB, S.A. DE C.V., priority 2009, published 2012).

Assay: Accelerated Oxidization Tests (anti-oxidizing ability, peroxides)
Settings: 200 ppm (extract: Nejayote 1000 ppm + 200 ppm Pure Ferulic Acid)
Protocol: The tests of anti-oxidizing ability of the compositions in examples 1, 2 and 3. Said anti-oxidizing ability is the ability which conveys, to a considerable extent, the phytoceutical properties of our composition.
The determination was performed by AOAC Official Method 965.33/(AOCS Method Cd 8-53) 2000 AOAC International.

Row | Structure (SMILES) | Accelerated Oxidization Tests (peroxides) (Time 0 Hs) | Accelerated Oxidization Tests (peroxides) (Time 4 Hs) | Accelerated Oxidization Tests (peroxides) (Time 8 Hs) | Accelerated Oxidization Tests (peroxides) (Time 16 Hs) | Accelerated Oxidization Tests (peroxides) (Time 24 Hs) | Accelerated Oxidization Tests (peroxides) (Time 32 Hs) | Accelerated Oxidization Tests (peroxides) (Time 40 Hs) | Accelerated Oxidization Tests (peroxides) (Time 48 Hs) | Accelerated Oxidization Tests (peroxides) (Time 56 Hs) | Accelerated Oxidization Tests (peroxides) (Time 64 Hs) | Accelerated Oxidization Tests (peroxides) (Time 72 Hs) | Accelerated Oxidization Tests (peroxides) (Time 80 Hs) | Accelerated Oxidization Tests (peroxides) (Time 88 Hs) | Accelerated Oxidization Tests (peroxides) (Time 96 Hs) | Accelerated Oxidization Tests (peroxides) (Time 104 Hs) | Accelerated Oxidization Tests (peroxides) (Time 112 Hs) | Accelerated Oxidization Tests (peroxides) (Time 120 Hs) | Accelerated Oxidization Tests (peroxides) (Time 128 Hs)
1 | COc1cc(/C=C/C(=O)O)ccc1O [Pure Ferulic Acid, ferulic acid] | 0.00 Meq/Kg | 0.00 Meq/Kg | 0.00 Meq/Kg | 0.00 Meq/Kg | 0.00 Meq/Kg | 3.17 Meq/Kg | 4.19 Meq/Kg | 7.25 Meq/Kg | 13.61 Meq/Kg | 20.18 Meq/Kg | 21.12 Meq/Kg | 24.19 Meq/Kg | 31.16 Meq/Kg | 36.19 Meq/Kg | 51.14 Meq/Kg | 31.05 Meq/Kg | 21.05 Meq/Kg | 0.00 Meq/Kg
2 | COc1ccc(O)c(C(C)(C)C)c1 [pure BHA, Butylated Hydroxy Anisole] | 0.00 Meq/Kg | 0.00 Meq/Kg | 0.00 Meq/Kg | 0.00 Meq/Kg | 0.00 Meq/Kg | 0.00 Meq/Kg | 0.00 Meq/Kg | 0.60 Meq/Kg | 0.68 Meq/Kg | 1.09 Meq/Kg | 0.91 Meq/Kg | 1.89 Meq/Kg | 8.03 Meq/Kg | 41.94 Meq/Kg | 45.11 Meq/Kg | 36.12 Meq/Kg | 24.10 Meq/Kg | 6.16 Meq/Kg
